Source: patent US20210283198A1, “METHOD FOR TREATING AND/OR PREVENTING COCCIDIOSIS” (priority 2020, published 2021)
Marks after values point to notes of the source that are not given here. *1 amine or outer side, *2 acyl side, *3 side chain or, on linkers, in order; H or OH if unused. Where a SMILES comes first, the peptide text is derived from it. Bridges are numbered along the chain shown (N, C = ends). [ ]: non-standard residue; d: D form. X1 = CC(C)CCCCCCCCC[C@H](CC(=O)[*:1])O[*:2]

System: Eimeria tenella oocyst
Assay: In vitro sporulation of the coccidia oocyst in 2% K2Cr2O7
Format: cell-based
Conditions: 100 ppm, 25° C., 10^4 oocysts/mL, mean ± SD (n = 3)
Procedure: Intestinal samples from naturally infected broilers were obtained from poultry farms. Un-sporulated oocysts were obtained from the cecal contents of broilers at day 8 post-infection. Oocyst sporulation was conducted in an aqueous solution of 2% potassium dichromate (K2Cr2O7) with or without surfactin standard or the Bacillus licheniformis-fermented product-derived surfactin C-form for 72 h at 25° C. (10^4 oocysts/mL). Sporulated and non-sporulated oocysts were counted and the percentage of sporulation was estimated by counting the number of sporulated oocysts in a total of 100 oocysts by microscopic observation. Second-generation merozoites were collected from ceca at 110 h post-infection from chickens that had been inoculated with 1×10^5 sporulated oocysts per bird. The merozoites (10^4/mL) were treated with or without surfactin standard or the Bacillus licheniformis-fermented product-derived surfactin C-form for 1 h at 37° C. Three groups of merozoites were prepared, including: (1) a control group comprising 10^4/ml merozoites without surfactin; (2) an experimental group comprising 10^4/ml merozoites treated with 100 ppm surfactin standard; and (3) an experimental group comprising 10^4/ml merozoites treated with the 100 ppm Bacillus licheniformis-fermented product-derived surfactin C-form. After incubation, propidium iodide was added to each well and then stained at 37° C. for 30 min in the dark. The stained samples were examined under a confocal laser-scanning microscope (ZEISS LSM800, Jena, Germany). The percentage of death of merozoite was determined by counting the number of dead merozoite in a total of 100 merozoites. The Eimeria sporozoites from vaccine were treated with different surfacitn for 1 h at 37° C. (10^6 sporozoites/mL). The sporozoites were fixed with 2.5% glutaraldehyde in 50 mM potassium phosphate buffer (pH 6.8) overnight at 4° C., and then washed three times with 50 mM potassium phosphate buffer (pH 6.8). Dehydration was performed in different concentrations of ethanol (35-100%) for 10 mM each and the samples were dried in a critical point drier (CPD 030, Bal-Tec AG, Balzers, Liechtenstein). Specimens were coated under vacuum with gold:palladium (60:40) in a sputter coater (Bal-Tec AG, Balzers, Liechtenstein), and examined using a scanning electron microscope (JSM-6300, JEOL Ltd., Tokyo, JAPAN). […]

Q: `CC(C)CCCCCCCCC[C@@H]1CC(=O)N[C@@H](CCC(=O)O)C(=O)N[C@@H](CC(C)C)C(=O)N[C@H](CC(C)C)C(=O)N[C@@H](C(C)C)C(=O)N[C@@H](CC(=O)O)C(=O)N[C@H](CC(C)C)C(=O)N[C@@H](CC(C)C)C(=O)O1` [surfactin standard, surfactin] (EL[dL]VD[dL]L; linker N-C via X1) was tested. Which “Sporulation of the coccidia oocyst (%)” value (12 h) did it give?
A: Its value is 0%.

Q: And the “Sporulation of the coccidia oocyst (%)” value (24 h)?
A: Its value is 0%.

Q: What about the “Sporulation of the coccidia oocyst (%)” value (48 h) of the same compound?
A: The value was 0^b %.

Q: And the “Sporulation of the coccidia oocyst (%)” value (72 h)?
A: Its value is 0^b %.
